Results: patent US4626523A, “GRF analogs II” (The Salk Institute for Biological Studies, priority 1985, dated 1986)
Square brackets hold non-standard residues; d marks the D form. Ends that are not written are not given here. Peptide text beside a SMILES is read from it. NMeY = CN[C@@H](Cc1ccc(O)cc1)C(=O)O; NMeF = CN[C@@H](Cc1ccccc1)C(=O)O; Nle = CCCC[C@H](N)C(=O)O

Assays:
[1] = test system: cells of rat pituitary glands; assay: in vitro GH release assay in cultured rat pituitary cells, side-by-side with hpGRF(1-40)-OH standard; assay type: cell-based; conditions: for Comparison % (GH release relative to hpGRF(1-40)-OH standard): equimolar concentrations, incubation 3 to 4 hours, immunoreactive GH in culture medium by radioimmunoassay, hpGRF(1-40)-OH = 100%
Description: To determine the effectiveness of the various synthetic peptides to promote the release of growth hormone, in vitro assays are carried out using synthetic hpGRF(1-40)--OH as a standard in side-by-side comparison with equimolar concentrations of the various other analogs and fragments synthesized. Cultures are used which include cells of rat pituitary glands removed some three to five days previously. Cultures which are considered optimal for the secretion of growth hormone are used for the comparative testing, in the general manner described in Vale et al. Endocrinology , 91, 562-572 (1972) and as more particularly described in Vale et al. Endocrinology, (1983), in press. Incubation with the substance to be tested is carried out for 3 to 4 hours, and aliquots of the culture medium are removed and processed to measure their contents in immunoreactive GH(ir GH) by a well-characterized radioimmunoassay.

[2] = test system: secretion of pituitary GH; assay: in vivo GH secretion in freely running normal male rats pretreated with FLA-63; set-up: species or system rat; conditions: injection through indwelling catheter, blood samples prior to and 5 and 20 minutes after injection
Description: In addition to the in vitro tests for secretion of growth hormone, in vivo experiments inject the synthetic peptides through an indwelling catheter into freely running normal male rats after pretreating them with FLA-63, a dopamine hydroxylase inhibitor that suppresses spontaneous GH secretion without affecting the response to exogenous GRF. Blood samples are taken through the same catheter immediately prior to and 5 and 20 minutes after injections. […] Dosages between about 100 nanograms and about 50 micrograms per Kg. of body weight are considered to be effective in causing secretion.

Compound | Comparison % (GH release relative to hpGRF(1-40)-OH standard) [1] [%] | duration of GH-releasing action compared with hpGRF(1-32)-NH2 [2] | stimulation of secretion of pituitary GH (GH levels in blood) ([2]; radioimmunoassay) | maximum effective concentration ([1]; in vitro, rat pituitary cell cultures) [nM]
CCCC[C@H](NC(=O)[C@@H](NC(=O)[C@H](CCC(=O)O)NC(=O)[C@H](Cc1c[nH]cn1)NC(=O)[C@H](CC(C)C)NC(=O)[C@H](CC(C)C)NC(=O)[C@H](CCCCN)NC(=O)[C@H](CCCNC(=N)N)NC(=O)[C@H](C)NC(=O)[C@H](Cc1ccc(O)cc1)NC(=O)[C@H](CC(C)C)NC(=O)[C@H](CCC(N)=O)NC(=O)CNC(=O)[C@H](CC(C)C)NC(=O)[C@@H](NC(=O)[C@H](CCCNC(=N)N)NC(=O)[C@H](CCCNC(=N)N)NC(=O)[C@H](Cc1ccc(O)cc1)NC(=O)[C@H](CO)NC(=O)[C@H](CO)NC(=O)[C@@H](NC(=O)[C@H](Cc1ccccc1)NC(=O)[C@@H](NC(=O)[C@H](C)NC(=O)[C@H](CC(=O)O)NC(=O)[C@H](C)NC(=O)[C@H](Cc1ccc(O)cc1)NC)[C@@H](C)CC)[C@@H](C)O)[C@@H](C)CC)[C@@H](C)CC)C(=O)N[C@@H](CC(N)=O)C(=O)N[C@@H](CCCNC(=N)N)C(N)=O [[N^a MeTyr^1, Nle^27]-rhGRF(1-29)-NH2, H-N^a MeTyr-Ala-Asp-Ala-Ile-Phe-Thr-Ser-Ser-Tyr-Arg-Arg-Ile-Leu-Gly-Gln-Leu-Tyr- Ala-Arg-Lys-Leu-Leu-His-Glu-Ile-Nle-Asn-Arg-NH2] (H-[NMeY]ADAIFTSSYRRILGQLYARKLLHEI[Nle]NR-NH2) | 1130 | – | – | –
CC[C@H](C)[C@H](NC(=O)[C@H](C)NC(=O)[C@H](CC(=O)O)NC(=O)[C@H](C)NC(=O)[C@H](Cc1ccc(O)cc1)NC)C(=O)N[C@@H](Cc1ccccc1)C(=O)N[C@H](C(=O)N[C@@H](CC(N)=O)C(=O)N[C@@H](CO)C(=O)N[C@@H](Cc1ccc(O)cc1)C(=O)N[C@@H](CCCNC(=N)N)C(=O)N[C@@H](CCCCN)C(=O)N[C@H](C(=O)N[C@@H](CC(C)C)C(=O)NCC(=O)N[C@@H](CCC(N)=O)C(=O)N[C@@H](CC(C)C)C(=O)N[C@@H](CO)C(=O)N[C@@H](C)C(=O)N[C@@H](CCCNC(=N)N)C(=O)N[C@@H](CCCCN)C(=O)N[C@@H](CC(C)C)C(=O)N[C@@H](CC(C)C)C(=O)N[C@@H](CCC(N)=O)C(=O)N[C@@H](CC(=O)O)C(=O)N[C@H](C(=O)N[C@@H](CCSC)C(=O)N[C@@H](CO)C(=O)N[C@@H](CCCNC(=N)N)C(=O)N[C@@H](CCC(N)=O)C(=O)N[C@@H](CCC(N)=O)C(=O)NCC(N)=O)[C@@H](C)CC)C(C)C)[C@@H](C)O [[N^a MeTyr^1]hpGRF(1-32)-NH2, H-N^a MeTyr-Ala-Asp-Ala-Ile-Phe-Thr-Asn-Ser-Tyr-Arg-Lys-Val-Leu-Gly-Gln-Leu-Ser- Ala-Arg-Lys-Leu-Leu-Gln-Asp-Ile-Met-Ser-Arg-Gln-Gln-Gly-NH2] | 184 | – | – | –
CC[C@H](C)[C@H](NC(=O)[C@H](C)NC(=O)[C@H](CC(=O)O)NC(=O)[C@H](C)NC(=O)[C@H](Cc1ccccc1)NC)C(=O)N[C@@H](Cc1ccccc1)C(=O)N[C@H](C(=O)N[C@@H](CC(N)=O)C(=O)N[C@@H](CO)C(=O)N[C@@H](Cc1ccc(O)cc1)C(=O)N[C@@H](CCCNC(=N)N)C(=O)N[C@@H](CCCCN)C(=O)N[C@H](C(=O)N[C@@H](CC(C)C)C(=O)NCC(=O)N[C@@H](CCC(N)=O)C(=O)N[C@@H](CC(C)C)C(=O)N[C@@H](CO)C(=O)N[C@@H](C)C(=O)N[C@@H](CCCNC(=N)N)C(=O)N[C@@H](CCCCN)C(=O)N[C@@H](CC(C)C)C(=O)N[C@@H](CC(C)C)C(=O)N[C@@H](CCC(N)=O)C(=O)N[C@@H](CC(=O)O)C(=O)N[C@H](C(=O)N[C@@H](CCSC)C(=O)N[C@@H](CO)C(=O)N[C@@H](CCCNC(=N)N)C(=O)N[C@@H](CCC(N)=O)C(=O)N[C@@H](CCC(N)=O)C(=O)NCC(N)=O)[C@@H](C)CC)C(C)C)[C@@H](C)O [[N^a MePhe^1]-hpGRF(1-32)-NH2] (H-[NMeF]ADAIFTNSYRKVLGQLSARKLLQDIMSRQQG-NH2) | 12 | substantially longer duration that hpGRF(1-32)-NH2 | powerful stimulators of the secretion of pituitary GH | 5 to 10
hpGRF(1-40)-OH (YADAIFTNSYRKVLGQLSARKLLQDIMSRQQGESNQERGA-OH; UniProt P01286 32-71, looked up, fragment) [synthetic human pancreas GH releasing factor fragment used as standard in the in vitro assay, reference compound] | 100 | – | – | –
H-C^a MePhe(4Cl)-Ala-Asp-Ala-Ile-Phe-Thr-Asn-Ser-Tyr-Arg-Lys-Val-Leu-Gly-Gln-Leu-Ser-Ala-Arg-Lys-Leu-Leu-Gln-Asp-Ile-Met-Ser-Arg-Gln-Gln-Gly-NH2 [[C^a Me/4Cl-Phe^1]-hpGRF(1-32)-NH2] | 5 | – | – | –
